Patent US20060194856A1, “Use of atii antagonist for the treatment or prevention of metabolic syndrome” (ASTRAZENECA AB, priority 2003, published 2006)
“And” between values parts separate entries of the source, which are not always exact repeats. Equal entries are not always repeated.

Experiments:
[1] = Clinical study: fasting serum insulin and plasma glucose; type: in vivo, patients; conditions: for P-glucose, At 12 months / S-insulin, At 12 months / S-insulin/P-glucose, At 12 months: at 12 months of treatment; for P-glucose, At 12 months / S-insulin, At 12 months / P-glucose, Baseline / S-insulin, Baseline: fasting; for P-glucose, At 12 months / S-insulin, At 12 months / S-insulin/P-glucose, At 12 months / P-glucose, Baseline / S-insulin, Baseline / S-insulin/P-glucose, Baseline / P-glucose, Mean change at 12 months / S-insulin, Mean change at 12 months / S-insulin/P-glucose, Mean change at 12 months: mean (SD); for P-glucose, Baseline / S-insulin, Baseline / S-insulin/P-glucose, Baseline: baseline (before randomised treatment); for P-glucose, Mean change at 12 months / S-insulin, Mean change at 12 months / S-insulin/P-glucose, Mean change at 12 months: change from baseline to 12 months; for Fasting levels of both serum insulin and plasma glucose during treatment: result in words, 12 months treatment
Description: The fasting plasma glucose level is defined as the concentration of glucose in the plasma of a subject after an overnight's fast. Patients were instructed not to eat breakfast on the morning of the follow-up visits.
(§1) A clinical study was performed. It was a study with a double-blind, randomised, controlled, parallel group design.
(§2) After four weeks of single-blind treatment with placebo, the patients were randomised to double-blind treatment with either candesartan cilexetil 16 mg or hydrochlorothiazide 25 mg and followed for one year. If sitting systolic or diastolic blood pressure was above target pressure (<130/<85 mmHg, for patients below 65 years, or <140/<90 mmHg, if 65 years or older) [1999 World Health Organization (WHO)—International Society of Hypertension Guidelines for the Management of Hypertension. Journal of Hypertension 1999; 17; 151-83] at any visit during the treatment period, double-blind treatment with felodipine extended-release 2.5-5.0 mg was added to the candesartan group and atenolol 50-100 mg was added to the hydrochlorothiazide group. No further antihypertensive treatment was allowed. Two patients were withdrawn from the study, both in the candesartan cilexetil group, since their blood pressure exceeded the pre-specified safety level (≧180 and/or ≧105 mm Hg, mean of two recordings at different visits).
Analyses of plasma glucose were carried out at the Department of Clinical Chemistry, Umeå University Hospital. Plasma glucose was routinely analysed by Vitros 950 glucose oxidase method (Ortho Clinical Diagnostics).
(§3) Efficacy variables were analysed using analysis of covariance (ANCOVA) with treatment and health centre as factors and baseline value as covariate. Difference in treatment effect was estimated with 95% confidence interval. To test difference between treatments in change of biochemistry variables the Wilcoxon Rank Sum test was used. […] In this approach all randomised patients who had completed the study and had taken at least one dose of study drug were included.

[2] = Clinical study: metabolic syndrome diagnosed according to WHO criteria; type: in vivo, patients; conditions: n = 196 per group
Description: as §1, §2
The metabolic syndrome was diagnosed according to the following criteria [World Health Organization (WHO). Department of Noncommunicable Disease Surveillance. Geneva: WHO 1999 pp 1-59]: • 1. Fasting plasma glucose above 6.1 mmol/L • 2. Blood pressure above 140/90 mm Hg • 3. One or more of the following: • a. plasma triglycerides above 1.7 mmol/L and/or HDL below 0.9 mmol/L (men), below 1.0 mmol/L (women) • b. Body mass index above 30 kg/m^2 Statistical Analyses

[3] = Clinical study: plasma triglycerides; type: in vivo; conditions: individual patients of the candesartan cilexetil group with metabolic syndrome at baseline but not after 12 months
Description: as §1
After four weeks of single-blind treatment with placebo, the patients were randomised to double-blind treatment with either candesartan cilexetil 16 mg or hydrochlorothiazide 25 mg and followed for one year. If sitting systolic or diastolic blood pressure was above target pressure (<130/<85 mmHg, for patients below 65 years, or <140/<90 mmHg, if 65 years or older) [1999 World Health Organization (WHO)—International Society of Hypertension Guidelines for the Management of Hypertension. […]
Total plasma cholesterol, LDL-cholesterol, HDL-cholesterol and triglycerides were determined in all patients at randomisation (n=392), and in most patients after six months (n=354), and after 12 months (n=352). Total plasma cholesterol and triglycerides concentrations were determined enzymatically. HDL-cholesterol was measured after the precipitation of apolipoprotein B-containing lipoproteins in whole plasma by heparin-manganese chloride [Lipid Research Clinics Program: Manual of Laboratory Operations, Bethesda, Md.: National Institutes of Health, Vol 1. […] Their LDL cholesterol levels were not calculated.

[4] = Double-blind randomised clinical study: sitting blood pressure and heart rate; type: in vivo, patients; conditions: for patients who attained a blood pressure <140/<90 mm Hg: after one year; for SBP, mean change / DBP, mean change / Heart rate, mean change: sitting, mean (SD)
Description: as §1
For inclusion, sitting blood pressure should be in the range of 140-179 and/or 90-104 mm Hg (mean of two measurements according to standardised procedures [1999 World Health Organization (WHO)—International Society of Hypertension Guidelines for the Management of Hypertension. Journal of Hypertension 1999; 17; 151-83] and at two visits) on placebo treatment and after the patients had been subjected to non-pharmacological treatment, as recommended [The Swedish Council on Technology Assessment in Health Care (SBU). Moderately elevated blood pressure. J Intern Med 1995; 238(Suppl 737): S1-S128; 1999 World Health Organization (WHO)—International Society of Hypertension Guidelines for the Management of Hypertension. Journal of Hypertension 1999; 17; 151-83] for one month or longer. Since the non-pharmacological intervention had been introduced before the start of the study and then maintained, its effect on metabolic variables during the study was minimal.
as §2, §3

[5] = at 6 months, hypertensive patients, candesartan cilexetil 16 mg (+ felodipine if needed) or HCTZ 25 mg (+ atenolol if needed)

Row | SMILES | P-glucose, At 12 months [1] | S-insulin, At 12 months [1] | S-insulin/P-glucose, At 12 months [1] | P-glucose, Baseline [1] | S-insulin, Baseline [1] | S-insulin/P-glucose, Baseline [1] | P-glucose, Mean change at 12 months [1] | S-insulin, Mean change at 12 months [1] | S-insulin/P-glucose, Mean change at 12 months [1] | Fasting levels of both serum insulin and plasma glucose during treatment [1] | patients suffering from the metabolic syndrome as defined by WHO ([2]; at base-line) | patients who attained a blood pressure <140/<90 mm Hg [4] | SBP, mean change [4, 5] | DBP, mean change ([4]; at 6 months, same regimens) | Heart rate, mean change ([4]; at 6 months, same regimens) | DBP, mean change ([4]; at 12 months, same regimens) | Heart rate, mean change ([4]; at 12 months, same regimens) | SBP, mean change ([4]; at 12 months, same regimens) | further results
1 | CCOc1nc2cccc(C(=O)OC(C)OC(=O)OC3CCCCC3)c2n1Cc1ccc(-c2ccccc2-c2nn[nH]n2)cc1 (centres unmarked) [Candesartan cilexetil, candesartan cilexetil] | 5.10 (0.57) mmol/L | 8.96 (5.42) mlU/L | 1.76 (1.06) | 5.17 (0.58) mmol/L | 9.25 (7.90) mlU/L | 1.77 (1.38) | −0.06 (0.46) mmol/L | −0.30 (6.50) mlU/L | −0.00 (1.23) | unaffected | 13 patients | 65% | −20.9 (13.1) mm Hg | −12.8 (6.9) mm Hg | −2.1 (8.4) bpm | −13.0 (7.4) mm Hg | −2.2 (8.4) bpm | −21.0 (15.2) mm Hg | Fasting glucose, 12 months ([1]; individual patients 1-8 of the candesartan cilexetil group with metabolic syndrome at baseline but not after 12 months, after 12 months): 5.5 mmol/L and 5.7 mmol/L (2×) and 5.6 mmol/L and 5.2 mmol/L and 6.0 mmol/L and 5.9 mmol/L; Fasting glucose, Baseline ([1]; individual patients 1-8 of the candesartan cilexetil group with metabolic syndrome at baseline but not after 12 months, baseline): 6.1 mmol/L and 6.5 mmol/L and 6.2 mmol/L (4×) and 6.4 mmol/L; Triglycerides, 12 months ([3]; after 12 months): 1.59 mmol/L and 1.44 mmol/L and 1.28 mmol/L; Triglycerides, Baseline ([3]; baseline): 2.15 mmol/L and 2.34 mmol/L and 2.65 mmol/L
2 | NS(=O)(=O)c1cc2c(cc1Cl)NCNS2(=O)=O [HCTZ, hydrochlorothiazide] | 5.42 (0.89) mmol/L | 11.00 (6.88) mlU/L | 2.03 (1.23) | 5.29 (0.98) mmol/L | 9.65 (6.09) mlU/L | 1.83 (1.10) | 0.13 (0.69) mmol/L | 1.35 (6.09) mlU/L | 0.20 (1.13) | increased | 12 patients | 62% | −23.9 (13.0) mm Hg | −13.9 (7.1) mm Hg | −6.8 (10.1) bpm | −12.9 (7.7) mm Hg | −7.3 (9.4) bpm | −22.8 (14.9) mm Hg | patients suffering from the metabolic syndrome as defined by WHO ([2]; at 12 months, p=0.007 between groups): 18 patients
